Test results reported in patent US8535706B2, “Bone implant” (Duquesne University of the Holy Spirit, priority 2010, dated 2013).

Columns and labels:
[1] = Heat stability of Melatonin adsorbed or linked to a substrate; format: physicochemical
Description: In the practice of the invention, the coadministration, adsorption or linking of Melatonin to the bone graft substrate preferably involves Melatonin per se, although the use of the precursors or metabolites of Melatonin (including but not limited to 5-hydroxytryptophan (5OHTrp), 5-hydroxytryptamine (5HT), N-acetyl-5-hydroxytryptamine (NA5OHT) or 6-hydroxymelatonin (6OHMEL)) still falls within the scope of this invention albeit in a less preferred way.

mesenchymal stem cells = settings: cited from earlier work

COc1ccc2[nH]cc(CCNC(C)=O)c2c1 [Melatonin, N-acetyl-5-methoxytryptamine]
stability to autoclaving ([1]; adsorbed or linked to substrate, autoclaved such as at 180° C.): surviving the autoclaving process intact
stability to sintering ([1]; sintering temperatures used to make bone grafts and implants): cannot survive

arg-gly-asp [RDG peptide]
spreading of the cells (mesenchymal stem cells; mesenchymal stem cells): does not enhance the spreading
attachment of mesenchymal stem cells (mesenchymal stem cells; substrates: hydroxyapatite, titanium, polymer scaffolds): can increase the attachment
